The values that follow come from US10517863B2, “Trilobine and its natural analogs for use as a drug” (PIERRE FABRE MEDICAMENT, priority 2015, dated 2019).

In assay [1] the target is T1, human C-terminal DNMT3A (a.a. 623-908) (Homo sapiens, UniProt Q9Y6K1).
T1 construct: The human C-terminal DNMT3A (a.a. 623-908); made in house
The experiment in a line: hDNMT3A restriction-based fluorescence assay. The format is biochemical. To be noted: read-out: hDNMT 3A inhibition, Inhibition (%). An excerpt:
hDNMT3A enzyme inhibition was adapted from the restriction-based fluorescence assay protocol as described in the literature (Ceccaldi et al. ChemBioChem 2011, 12, 1337-1345). Briefly, a 5′-labelled biotin oligonucleotide is hybridized to its complementary strand labelled with 6-carboxyfluorescein at the 3′-end into a 384 well microplate (black Optiplates; Perkin Elmer) pre-coated with avidin. The duplex contains a unique CpG site overlapping with a restriction site of a methylation sensitive restriction enzyme. The human C-terminal DNMT3A (a.a. 623-908), produced as described in the literature (Gros et al. Nucl. Acids Res. 2013, 41(19):e185), was added in each well (200 ng/well) and mixed with the chemical compounds at desired concentrations and freshly prepared AdoMet (20 μM final concentration) to start the reaction in a total volume of 50 μL. After 1 hour incubation at 37° C. each well were washed three times with PBS, Tween-20 0.05%, NaCl (500 mM) and three more times with PBST. Specific fluorescent signals were detected with the methylation-sensitive restriction enzyme HpyCH4IV (NEB) as described and measured on a Perkin Elmer Envision detector. The percentage of inhibition is reported. The formula used to calculate the percentage of inhibition is [(X−Y)/X]×100, where X is the signal determined in the absence of the inhibitor and Y is the signal obtained in the presence of the inhibitor. The concentration at which 50% of efficacy of inhibition is observed (EC50) was determined by analysis of a concentration range of the tested compound in triplicates. The non-linear regression fittings with sigmoidal dose-response (variable slope) were performed with GraphPad Prism 4.03 (GraphPad Software).

The test system of assay [2] is P16 promoter in colon cancer cells HCT116. The experiment in a line: P16 (CDKN2A) promoter demethylation, COBRA. To be noted: at 0.1 μM. Type of assay: cell-based, human. The method, then:
Cancer cell lines (colon HCT116 or leukaemia KG1) were treated with the compounds as indicated in the Data Tables and then analysed as following.
DNA was isolated from cultured cells using the DNeasy Blood and Tissue Kit according to the manufacturer's specifications (Qiagen). DNA bisulphite conversion was performed on 2 μg of DNA using the EZ DNA Methylation-Gold Kit according to the manufacturer's specifications (Zymo Research) and bisulfited DNA was eluted with 10 μL of water. Two different techniques were used to analyse the DNA methylation profile after bisulfite conversion of genomic DNA: (A) cloning and sequencing or (B) COBRA. The primers for each promoter are specified in the Table 3.
This technique is a variation of bisulfite sequencing, and combines bisulfite conversion based polymerase chain reaction with restriction digestion. DNA methylation levels are easily and quickly measured without the need for laborious and costing more time sub-cloning and sequencing, as with bisulfite sequencing.
DNA amplification was set up with 100 ng eluted bisulfited DNA in 50 μl PCR reaction containing 1×PCR buffer, 2.5 mM MgCl2, 0.3 mM dNTPs, 400 nM each primer and 1.25 units EpiTaq HS (Takara) on C1000 Touch™ thermal cycler by 98° C. for 10 sec, 55° C. for 30 sec, 72° C. for 30 sec×40 cycles. 20 μL of PCR amplicons were digested in 30 μL by 2 units of BsiEI at 60° C. for 90 min. DNA fragments were migrated by 2% agarose gel electrophoresis and each band was quantified by Image Lab Software v2.0 (BioRad Laboratories).

The test system of assay [3] is luciferase reporter under the control of a methylated CMV promoter in leukemia KG-1 cells. Description: CMV-luc reexpression (luciferase reporter) in KG-1 cells. The format is cell-based, human. The settings on record: for Reactivation fold of luciferase gene reporter in KG-1 CMV-Luc: 24 hour incubation, fold induction vs DMSO, mean ± standard error. On the procedure:
Aiming at identifying new DNMT inhibitors, plant extract samples were tested for their ability to reactivate gene expression upon use of an integrated luciferase reporter system under the control of a methylated CMV promoter in leukemia KG-1 cells which inhibits its expression (CMV-luc assay reported in following Table). […] The extract was fractionated by preparative HPLC. Identification of the active components was accomplished by HRMS and NMR spectroscopy. The pure compounds isolated from the extract through bio-guided fractionation are trilobine and bisbenzylisoquinoline analogue products. The active compounds were then further evaluated for their ability to inhibit DNMTs in vitro and DNA methylation in cancer cells.
KG-1 cells were stably transfected with the firefly luciferase reporter gene (luc+ from pGL3; Promega) under the control of the cytomegalovirus (CMV) promoter (from pEGFP-N1; Clontech Laboratories Inc.) partially methylated (50%). 20,000 cells per well were seeded in a 96-well plate. After 24 hour incubation in the presence of the test compound or solvant (DMSO), the induction of the promoter was measured by quantification of the luciferase signal with the Brite-lite assay system (PerkinElmer) according to the manufacturer's protocol. The luminescence was measured on an EnVision multilabel plate reader (PerkinElmer), and the data are expressed as the fold induction as compared with the DMSO control. The mean of three experiments and the standard error is reported.

Assay [4] addresses T2, His-DNMT1 (182 kDa, human) (Homo sapiens, UniProt P26358).
T2 construct: His; made in house
Description: hDNMT1 assay ([methyl-3H] SAM Flashplate). Type of assay: biochemical. The settings on record: read-out: hDNMT1 percentage of inhibition. On the procedure: His-DNMT1 (182 kDa, human) was cloned, expressed and purified as described in the literature (Halby et al. ChemBioChem 2012, 13, 157-165). The reaction was performed in a […] total reaction volume in low volume NBS™ 384-well microplates (Corning), containing the tested compound (up to 1% DMSO), 1 μM of a SAM/[methyl-^3H] SAM (3 TBq/mmol, PerkinElmer) mix in a ratio of 3-to-1 (isotopic dilution 1*:3), 0.3 μM of biotinylated hemimethylated DNA duplex (5′-GATmCGCmCGATGmCGmCGAATmCGmCGATmCGATGmCGAT-3′ and BIOT-5′-[…]-3′), and 90 nM of DNMT1 in methylation buffer (20 mM HEPES pH 7.2, 1 mM EDTA, 50 mM KCl, 25 μg/mL BSA). The reaction was incubated at 37° C. for 2 hours. 8 μL, are then transferred into a streptavidin 96-well scintillant coated Flashplate™ (PerkinElmer) containing 190 μL of 20 μM SAH in 50 mM Tris-HCl pH 7.4. The Flashplate™ was agitated at room temperature for 1 hour and read in 200 μL of 50 mM Tris-HCl pH 7.4 on TopCount NXT (PerkinElmer). The percentage of inhibition is reported. The formula used to calculate the percentage of inhibition is [(X−Y)/X]×100, where X is the signal determined in the absence of the inhibitor and Y is the signal obtained in the presence of the inhibitor.

T1 sequence (Q9Y6K1 627-912): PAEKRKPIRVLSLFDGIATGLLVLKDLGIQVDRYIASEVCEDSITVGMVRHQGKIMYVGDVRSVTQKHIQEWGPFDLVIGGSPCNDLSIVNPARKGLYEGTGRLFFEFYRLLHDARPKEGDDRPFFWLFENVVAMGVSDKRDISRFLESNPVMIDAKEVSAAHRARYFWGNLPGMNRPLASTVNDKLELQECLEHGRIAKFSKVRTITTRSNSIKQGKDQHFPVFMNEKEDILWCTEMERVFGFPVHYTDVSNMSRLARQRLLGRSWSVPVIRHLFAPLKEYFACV
T2 sequence (P26358 whole entry): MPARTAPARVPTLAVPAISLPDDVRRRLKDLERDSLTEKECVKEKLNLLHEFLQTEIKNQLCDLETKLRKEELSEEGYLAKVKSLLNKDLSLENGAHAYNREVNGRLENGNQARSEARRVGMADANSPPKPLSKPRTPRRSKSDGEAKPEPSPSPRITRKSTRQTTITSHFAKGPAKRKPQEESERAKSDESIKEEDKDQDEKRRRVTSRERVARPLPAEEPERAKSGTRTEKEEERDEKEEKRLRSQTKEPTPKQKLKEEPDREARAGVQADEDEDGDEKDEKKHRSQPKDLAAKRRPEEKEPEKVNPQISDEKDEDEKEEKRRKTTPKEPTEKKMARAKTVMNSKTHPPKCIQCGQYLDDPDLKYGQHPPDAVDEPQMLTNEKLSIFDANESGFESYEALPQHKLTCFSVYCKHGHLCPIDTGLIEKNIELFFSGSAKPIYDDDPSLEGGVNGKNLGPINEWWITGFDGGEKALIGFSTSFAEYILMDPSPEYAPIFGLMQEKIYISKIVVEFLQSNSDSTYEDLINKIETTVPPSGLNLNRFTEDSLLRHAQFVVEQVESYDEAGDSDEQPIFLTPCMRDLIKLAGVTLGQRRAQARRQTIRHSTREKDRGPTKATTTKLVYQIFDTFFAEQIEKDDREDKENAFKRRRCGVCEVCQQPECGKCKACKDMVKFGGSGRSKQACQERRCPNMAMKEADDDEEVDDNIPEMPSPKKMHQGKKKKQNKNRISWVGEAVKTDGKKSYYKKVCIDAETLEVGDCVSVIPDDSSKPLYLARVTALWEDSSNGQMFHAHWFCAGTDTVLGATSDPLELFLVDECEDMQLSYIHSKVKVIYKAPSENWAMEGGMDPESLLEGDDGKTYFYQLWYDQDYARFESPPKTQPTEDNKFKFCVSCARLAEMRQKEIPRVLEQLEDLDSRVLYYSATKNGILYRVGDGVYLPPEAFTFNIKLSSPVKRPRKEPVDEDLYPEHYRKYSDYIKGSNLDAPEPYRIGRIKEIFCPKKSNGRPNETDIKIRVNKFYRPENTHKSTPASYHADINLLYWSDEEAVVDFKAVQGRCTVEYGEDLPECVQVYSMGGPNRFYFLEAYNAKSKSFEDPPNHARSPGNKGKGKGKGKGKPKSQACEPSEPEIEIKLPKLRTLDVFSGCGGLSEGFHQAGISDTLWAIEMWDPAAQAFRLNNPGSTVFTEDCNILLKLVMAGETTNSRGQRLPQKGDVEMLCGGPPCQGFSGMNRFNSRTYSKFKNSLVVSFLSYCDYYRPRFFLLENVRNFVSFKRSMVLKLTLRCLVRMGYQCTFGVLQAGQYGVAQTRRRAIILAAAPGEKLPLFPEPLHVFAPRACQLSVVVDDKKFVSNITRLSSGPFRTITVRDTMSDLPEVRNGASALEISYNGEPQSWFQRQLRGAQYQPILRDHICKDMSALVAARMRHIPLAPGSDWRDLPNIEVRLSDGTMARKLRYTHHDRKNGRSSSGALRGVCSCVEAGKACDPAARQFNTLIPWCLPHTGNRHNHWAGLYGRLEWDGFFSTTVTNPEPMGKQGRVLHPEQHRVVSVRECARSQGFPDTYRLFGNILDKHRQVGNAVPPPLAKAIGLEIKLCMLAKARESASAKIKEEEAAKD

Take `COc1ccc2cc1Oc1ccc(cc1)C[C@@H]1NCCc3cc(OC)c4c(c31)Oc1cc3c(cc1O4)CCN(C)[C@H]3C2` [Compound 1, Trilobine]: the inhibition at 10 µM in assay [1] (10 μM) amounted to 78%. Besides, the inhibition at 32 µM stood at 94% in assay [1] (32 μM) and 50% in assay [4]. Moreover, the “Demethylation (COBRA) P16/HCT116” value was −37% after 3 days in assay [2] (after 3 days), −52% after 7 days in assay [2] (after 7 days) and −53% after 21 days in assay [2] (after 21 days). In addition, the “Reactivation fold of luciferase gene reporter in KG-1 CMV-Luc” value is 1.1 ± 0.1 fold in assay [3] (0.1 μM); 1.9 ± 1.2 fold in assay [3] (0.32 μM); 1.6 ± 0.8 fold in assay [3] (0.5 μM); 2.6 ± 1.4 fold in assay [3] (1 μM); 3.5 ± 1.1 fold in assay [3] (3.2 μM); 6.4 ± 0.1 fold in assay [3] (5 μM). Also, the “FI-24 h, KG1 CMV-Luc model” value in assay [3] (at 5 μM, 24 h) was 5.8 ± 0.6.

The inhibition is the share of the control response that was lost under treatment.
